Tests used:
[1] = system: wild-type adipose stem cells; assay: in vitro adipogenic differentiation of adipose stem cells derived from WT mice (oil red staining, Western blot, Real time PCR); format: cell-based
Method: (§1) FIG. 6E and FIG. 6F respectively show the mRNA levels of Pparg (FIG. 6E) and Fabp4 (FIG. 6F) after adipogenic differentiation of WT and ICAM-1^−/− mice-derived adipose stem cells under […] or DMSO treatment, using Real time PCR.
(§2) Cultivation of adipose stromal cells The sorted CD31^−CD45^−Sca-1^+PDGFR-α^+ adipose stromal cells as well as CD31^−CD45^−Sca-[…]-1^− and other components were cultured in DMEM low-sugar medium supplemented with 10% FBS alone or in combination. In some experiments, adherent adipose mononuclear cells were directly cultured in DMEM low-sugar medium supplemented with 10% FBS, and immune cells and vascular endothelial cells were removed during the medium exchange and passage steps to obtain simple adipose stromal cells.
(§3) For preparing differentiation medium, 0.5 mM 3-isobutyl-1-methylxanthine (IBMX), 50 μM indomethacin, 10 μg/ml insulin and 0.5 μM dexamethasone were added to 10% FBS of DMEM high glucose medium. When the adipose stromal cells grew to 100% confluence, the differentiation medium was changed and the medium was changed every two days, and it was taken about 5 days until differentiation was completed.
(§4) Rho and ROCK can negatively regulate adipogenic differentiation in a cytoskeleton-dependent or insulin signal-dependent manner, and our RNA-seq data also supports the role of Rho GTPase in adipose differentiation. In order to test whether Rho and ROCK are involved in the inhibitory effect of ICAM-1 on adipogenic differentiation of adipose stem cells, we used ROCK inhibitor Y-27632 to treat adipose stem cells respectively. […] Therefore, ICAM-1 inhibits the adipogenic differentiation of adipose stem cells through the Rho-ROCK pathway.
(§5) In order to verify whether Rho GTPase activity can reverse the excessive adipogenic differentiation caused by ICAM-1 deletion, we used the Rho agonist Rho activator II (RA2), which can constitutively activate RhoGTPase. […] It is important that the difference in the expression of adipogenic differentiation genes between wild-type and ICAM-1^−/− cells is eliminated by Rho

[2] = system: ICAM-1−/− adipose stem cells; assay: in vitro adipogenic differentiation of adipose stem cells derived from ICAM-1−/− mice (oil red staining, Western blot, Real time PCR); format: cell-based
Method: as §1, §2, §3, §4, §5

[3] = system: ICAM-1−/− mice; assay: local RA2 injection into right inguinal fat pad of ICAM-1−/− mice with high-fat diet induced obesity; format: in vivo; settings: RA2 locally into right inguinal fat pad, 10 weeks
Method: (§6) FIG. 6L-6N respectively show the visual observation result (FIG. 6L), adipose tissue observation result (FIG. 6M) and statistical analysis of changes in subcutaneous adipose tissue weight (6N) in the right subcutaneous adipose tissue of WT mice and ICAM-1^−/− mice that were given a high-fat diet induced obesity is injected with RA2 (every 2 days, […]).
(§7) This asymmetry is not observed in RA2-treated WT mice and PBS-treated mice (FIG. 6L).

[4] = system: WT mice; assay: local RA2 injection into right inguinal fat pad of WT mice with high-fat diet induced obesity; format: in vivo; settings: RA2 locally into right inguinal fat pad, 10 weeks
Method: as §6, §7

[5] = system: human adipose stem cells; assay: adipogenic differentiation induction of human primary adipose stromal cells (ICAM-1 siRNA knockdown, RA2); format: cell-based; settings: RA2 treatment during differentiation; FIG. 7H-J
Method: FIGS. 7F-7G respectively show the adipogenic differentiation-related gene expression and Rho GTP activity of adipose stem cells during adipogenic differentiation with the expression of ICAM-1 interfered.
FIGS. 7H-7J respectively show the expressions of adipogenic differentiation-related genes (PPARG, CEBPA, FABP4) in adipose stem cells observed with RA2 activated Rho after interfering with ICAM-1 expression.
as §3
First, the expression content of ICAM-1 in human adipose tissue was analyzed. Currently, there is no recognized characteristic molecule of human preadipocytes. […] These ICAM-1^+ cells, like adipose tissue in mice, are mainly located around blood vessels (FIG. 7B). To test the regulatory effect of ICAM-1 on human adipose stem cells, we isolated human primary adipose stromal cells for adipogenic differentiation induction. […]

Compound	adipogenic differentiation ability (oil red staining) ([1]; RA2 added during in vitro differentiation, wild-type cells, FIG. 6G)	adipogenic differentiation genes Pparg, Cebpa, Fabp4, Plin1 (mRNA, Real time PCR) ([1]; Rho GTPase activation by RA2, wild-type cells, FIG. 6H-K)	adipogenic differentiation ability (oil red staining) ([2]; RA2 added during in vitro differentiation, ICAM-1−/− cells, FIG. 6G)	difference in the expression of adipogenic differentiation genes between wild-type and ICAM-1−/− cells ([2]; Rho GTPase activation by RA2, FIG. 6H-K)	adipogenic differentiation genes Pparg, Cebpa, Fabp4, Plin1 (mRNA, Real time PCR) ([2]; Rho GTPase activation by RA2, ICAM-1−/− precursor cells, FIG. 6H-K)	excessive adipogenic differentiation (inguinal fat pads, injected right vs left side) ([3]; FIG. 6L)	fat weight (subcutaneous adipose tissue) ([3]; every 2 days, FIG. 6M-N)	asymmetry of inguinal fat pads on both sides ([4]; FIG. 6L)	fat weight (subcutaneous adipose tissue) ([4]; every 2 days, FIG. 6M-N)	enhancement of adipogenic differentiation of ICAM-1 knock-down cells (PPARG, CEBPA, FABP4 expression) [5]	adipogenic differentiation (oil red staining) ([1]; 10 μM Y-27632 compared with DMSO-treated group, wild-type cells, FIG. 6C)	expression level of Perilipin A protein (Western blot) ([1]; Y-27632 vs DMSO, wild-type cells after adipogenic differentiation)	expression of adipogenic differentiation-related proteins and genes (Perilipin A, Pparg, Fabp4) ([1]; inhibiting ROCK (Y-27632 vs DMSO), wild-type cells, FIG. 6D-F)	adipogenic differentiation (oil red staining) ([2]; 10 μM Y-27632 compared with DMSO-treated group, ICAM-1−/− cells, FIG. 6C)	expression level of Perilipin A protein (Western blot) ([2]; Y-27632 vs DMSO, ICAM-1−/− cells after adipogenic differentiation)	expression of adipogenic differentiation-related proteins and genes (Perilipin A, Pparg, Fabp4) ([2]; inhibiting ROCK (Y-27632 vs DMSO), ICAM-1−/− cells, FIG. 6D-F)
Rho activator II [RA2]	not obvious	only Pparg and Fabp4 are significantly changed	significantly inhibited	eliminated	extensive reduction	weakened	significantly reduce	not observed	not	eliminated						
C[C@@H](N)[C@H]1CC[C@H](C(=O)Nc2ccncc2)CC1 [Y-27632]											significantly accelerate	significantly increase	significantly increase	no obvious effect	little effect	not obvious
